The subject of one data set is S. aureus (ATCC 25923). Nature of the data set: Bacteria colony counting method. The data set is classed as cell-based, Staphylococcus aureus. The settings on record: 100 µg peptide, 37 °C 2 h, plated, colonies counted after 12–18 h, n = 5, numbers only in Fig. 1c. On the procedure:
(§1) The antimicrobial activity assays were completed in a specialized laboratory. Red blood cells were collected from healthy adults at the 307 hospital laboratory. All participants gave informed consent to participate in the study.
(§2) Twenty microliters of the culture was diluted in LB (final volume 1 ml) and was evenly coated on an LB plate, inverted and incubated at 37 °C for 12–18 h and then the bacterial colonies were counted.
As for “CLRIGMRGRELMGGIGKTM [pCM19, 19 amino acids from positions 42 to 60 of hGlyrichin]”, the “antibacterial activity by colony counting” value (“antibacterial activity” for short) is listed as “effectively inhibited the growth”.

As for “CLRIGMRGRELM [pCM12, 12 amino acids of pCM19 from which 7 amino acids at the carboxyl terminal were removed]”, the “antibacterial activity” value is “effectively inhibited the growth”.

As to “CLRIGMRGREL [pCM11, pCM12 with the last amino acid residue removed]”, the “antibacterial activity” value was “lost its antibacterial activity”.

For “GICRLMMRRGLE [RC, a random array of pCM12]”, the “antibacterial activity” value is “almost completely lost its bactericidal activity”.

As for “GGIGKTM [flexible peptide, a GIG array, the portion that is different between pCM19 and pCM12]”, the “antibacterial activity” value was “almost completely lost the antibacterial activity”.

Another data set concerns S. aureus Amp^R (ATCC BAA-44). Kind of data set: Bacteria colony counting method. The data set is classed as cell-based, Staphylococcus aureus. The settings on record: 100 µg peptide, 37 °C 2 h, plated, colonies counted after 12–18 h, n = 5, numbers only in Fig. 1d. The protocol:
as §1, §2
On to “CLRIGMRGRELMGGIGKTM [pCM19, 19 amino acids from positions 42 to 60 of hGlyrichin]”, for which the “antibacterial activity” value was “good inhibition and killing”.

Consider “CLRIGMRGRELM [pCM12, 12 amino acids of pCM19 from which 7 amino acids at the carboxyl terminal were removed]”, for which the “antibacterial activity” value was “good inhibition and killing”.

As for “CLRIGMRGREL [pCM11, pCM12 with the last amino acid residue removed]”, the “antibacterial activity” value was “lost its antibacterial activity”.

Turning to “GICRLMMRRGLE [RC, a random array of pCM12]”, the “antibacterial activity” value is listed as “almost completely lost its bactericidal activity”.

With “GGIGKTM [flexible peptide, a GIG array, the portion that is different between pCM19 and pCM12]”, the “antibacterial activity” value is on record as “almost completely lost the antibacterial activity”.

For a further data set, the system named is S. Typhi (ATCC 19430). Kind of data set: Bacteria colony counting method. The data set is classed as cell-based, Salmonella Typhi. The settings on record: 100 µg peptide, 37 °C 2 h, plated, colonies counted after 12–18 h, n = 5, numbers only in Fig. 1e. On the procedure: as §1, §2
In the case of “CLRIGMRGRELMGGIGKTM [pCM19, 19 amino acids from positions 42 to 60 of hGlyrichin]”, the “antibacterial activity” value is “effectively inhibited the growth”.

On to “CLRIGMRGRELM [pCM12, 12 amino acids of pCM19 from which 7 amino acids at the carboxyl terminal were removed]”, for which the “antibacterial activity” value was “effectively inhibited the growth”.

“CLRIGMRGREL [pCM11, pCM12 with the last amino acid residue removed]”: the “antibacterial activity” value is on record as “lost its antibacterial activity”.

With “GICRLMMRRGLE [RC, a random array of pCM12]”, the “antibacterial activity” value is “almost completely lost its bactericidal activity”.

For “GGIGKTM [flexible peptide, a GIG array, the portion that is different between pCM19 and pCM12]”, the “antibacterial activity” value is “almost completely lost the antibacterial activity”.

Another data set relates to E. coli BL21. Kind of data set: Bacteria colony counting method. The data set is classed as cell-based, Escherichia coli. The settings on record: 100 µg peptide, 37 °C 2 h, plated, colonies counted after 12–18 h, n = 5, numbers only in Fig. 1a. On the procedure:
as §1, §2
On to “CLRIGMRGRELMGGIGKTM [pCM19, 19 amino acids from positions 42 to 60 of hGlyrichin]”, for which the “antibacterial activity” value is listed as “effectively inhibited the growth”.

Take “CLRIGMRGRELM [pCM12, 12 amino acids of pCM19 from which 7 amino acids at the carboxyl terminal were removed]”: the “antibacterial activity” value is “effectively inhibited the growth”.

As to “CLRIGMRGREL [pCM11, pCM12 with the last amino acid residue removed]”, the “antibacterial activity” value is “lost its antibacterial activity”.

With “GICRLMMRRGLE [RC, a random array of pCM12]”, the “antibacterial activity” value is “almost completely lost its bactericidal activity”.

On to “GGIGKTM [flexible peptide, a GIG array, the portion that is different between pCM19 and pCM12]”, for which the “antibacterial activity” value was “almost completely lost the antibacterial activity”.

A further data set concerns E. coli BL21 Amp^R. Kind of data set: Bacteria colony counting method. The data set is classed as cell-based, Escherichia coli. The settings on record: 100 µg peptide, 37 °C 2 h, plated, colonies counted after 12–18 h, n = 5, numbers only in Fig. 1b. The protocol: as §1, §2
On to “CLRIGMRGRELMGGIGKTM [pCM19, 19 amino acids from positions 42 to 60 of hGlyrichin]”, for which the “antibacterial activity” value was “good inhibition and killing”.

“CLRIGMRGRELM [pCM12, 12 amino acids of pCM19 from which 7 amino acids at the carboxyl terminal were removed]”: the “antibacterial activity” value was “good inhibition and killing”.

With “CLRIGMRGREL [pCM11, pCM12 with the last amino acid residue removed]”, the “antibacterial activity” value is “lost its antibacterial activity”.

Take “GICRLMMRRGLE [RC, a random array of pCM12]”: the “antibacterial activity” value was “almost completely lost its bactericidal activity”.

“GGIGKTM [flexible peptide, a GIG array, the portion that is different between pCM19 and pCM12]”: the “antibacterial activity” value is given as “almost completely lost the antibacterial activity”.

The test system of the next data set is human red blood cells. Nature of the data set: In vitro hemolysis assay. The data set is classed as cell-based. The settings on record: 1 h 37 °C, even at a much higher concentration than the effective antibacterial dose (up to 3000 µg/ml). On the procedure: as §1
Blood samples from healthy donors were treated with heparin to minimize clotting. The blood cell was washed three times with normal saline, and 8 µl samples were diluted to 100 µl in normal saline. The diluted blood cell (100 µl) was incubated with 100 µl of pCM19 (3000 µg/ml) for 1 h at 37 °C; then the same volume diluted blood cell was incubated with 100 µl of pCM12 (100, 200, 500, 1000, 2000, 3000 µg/ml) for 1 h at 37 °C. Centrifugation was carried out at 1000 rpm for 5 min at 4 °C. Each treatment was performed in triplicate. The absorbance of each sample was measured at 570 nm using a microplate reader.
Turning to “CLRIGMRGRELMGGIGKTM [pCM19, 19 amino acids from positions 42 to 60 of hGlyrichin]”, the “damage to red cell membranes (hemolysis), in words” value is listed as “caused no damage to the red cell membranes”.

Consider “CLRIGMRGRELM [pCM12, 12 amino acids of pCM19 from which 7 amino acids at the carboxyl terminal were removed]”, for which the “damage to red cell membranes (hemolysis), in words” value was “caused no damage to the red cell membranes”.

For the origin of these results see PMC4993737, “Antibacterial activity identification of pCM19 and pCM12 derived from hGlyrichin” (SpringerPlus, 2016).
